The target of one test is T1, CDK2/CycE (Homo sapiens, UniProt P24941).
T1 construct: GST; purchased ProQinase GmbH (Freiburg, Germany); host or cells: insect cells (Sf9)
Put plainly: CDK2/CycE kinase assay (TR-FRET). The format is biochemical. The following applies: avg, read-out: CDK2 avg (IC50 [mol/l]). The method, boiled down:
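Read-out is a TR-FRET 665/620 nm emission ratio from EDTA-stopped reactions detected with anti-pRB(pSer807/pSer811), Eu-labelled anti-mouse IgG and streptavidin-XL665, scaled between no-enzyme and uninhibited wells. Reaction: Sf9-expressed GST-CDK2/GST-CycE, 15 min compound preincubation, 10 μM ATP, 0.75 μM biotin-peptide, 25 min, 22° C., pH 8.0 Tris buffer.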
A general note: In TR-FRET formats the signal depends on donor and acceptor labels being close together.

Test [1] relates to human cervical tumor cell line HeLa (ATCC CCL-2). Nature of the test: SAC-Formation - Nocodazole-Induced Assay. The format is cell-based. The following applies: Homo sapiens, HeLa, 24 h, HeLa cells, nocodazole 0.1 μg/ml together with test compound, decrease of mitotic cells (phospho-histone H3 Ser10). The procedure, abridged:
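Loss of phospho-histone H3 Ser10-positive cells, counted against Hoechst-stained nuclei by high-content imaging, marked mitotic breakthrough. Compounds (0.005–20 μM, 0.5% DMSO) were co-dosed with 0.1 μg/ml nocodazole onto HeLa cells for 24 h at 37 °C. Curves were fitted with a four-parameter Hill equation.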

Where only a bound is given, the exact number is not on record here.

For `Cc1nsc(Nc2cnc(C(F)(F)F)cn2)c1C(=O)Nc1ccc(C(=O)N2CCN(CC(F)(F)F)CC2)cc1` [Example 260, 3-methyl-N-(4-{[4-(2,2,2-trifluoroethyl)piperazin-1-yl]carbonyl}phenyl)-5-{[5-(trifluoromethyl)pyrazin-2-yl]amino}-1,2-thiazole-4-carboxamide], the IC50 is greater than 20 µM on CDK2/CycE and 87 nM in test [1].
The corresponding values for `Cc1nsc(Nc2cnc(C(F)(F)F)cn2)c1C(=O)Nc1ccc(F)c(OC2CCN(CC(F)(F)F)CC2)c1` [Example 264, N-(4-fluoro-3-{[1-(2,2,2-trifluoroethyl)piperidin-4-yl]oxy}phenyl)-3-methyl-5-{[5-(trifluoromethyl)pyrazin-2-yl]amino}-1,2-thiazole-4-carboxamide] are greater than 20 µM and 35 nM.
Taken in the same sequence, the figures for `Cc1nsc(Nc2cnc(C(F)(F)F)cn2)c1C(=O)Nc1ccc(F)c(OCC2CCN(CCF)CC2)c1` [Example 309, N-(4-fluoro-3-{[1-(2-fluoroethyl)piperidin-4-yl]methoxy}phenyl)-3-methyl-5-{[5-(trifluoromethyl)pyrazin-2-yl]amino}-1,2-thiazole-4-carboxamide] were no less than 20 µM and 130 nM.
For the molecule `Cc1nsc(Nc2cnc(C(F)(F)F)cn2)c1C(=O)Nc1ccc(OC2CCN(CCC(F)(F)F)C2)nc1` (stereo not shown) [Example 298, 3-methyl-5-{[5-(trifluoromethyl)pyrazin-2-yl]amino}-N-(6-{[1-(3,3,3-trifluoropropyl)pyrrolidin-3-yl]oxy}pyridin-3-yl)-1,2-thiazole-4-carboxamide], the IC50 on CDK2/CycE was greater than 20 µM; in test [1], 80 nM.
The corresponding values for `Cc1nsc(Nc2cnc(C(F)(F)F)cn2)c1C(=O)Nc1ccc(F)c(OC2CCN(CC(F)F)CC2)c1` [Example 265, N-(3-{[1-(2,2-difluoroethyl)piperidin-4-yl]oxy}-4-fluorophenyl)-3-methyl-5-{[5-(trifluoromethyl)pyrazin-2-yl]amino}-1,2-thiazole-4-carboxamide] are greater than 20 µM and 190 nM.
The corresponding values for `CCN1CCN(C(=O)c2ccc(NC(=O)c3c(C)nsc3Nc3cncc(C(F)(F)F)n3)cc2)CC1` [Example 275, N-{4-[(4-ethylpiperazin-1-yl)carbonyl]phenyl}-3-methyl-5-{[6-(trifluoromethyl)pyrazin-2-yl]amino}-1,2-thiazole-4-carboxamide] are 8.4 µM and 840 nM.
The corresponding values for `Cc1nsc(Nc2cnc(C(F)(F)F)cn2)c1C(=O)Nc1ccc(F)c(OCCCNCCC(F)(F)F)c1` [Example 307, N-(4-fluoro-3-{3-[(3,3,3-trifluoropropyl)amino]propoxy}phenyl)-3-methyl-5-{[5-(trifluoromethyl)pyrazin-2-yl]amino}-1,2-thiazole-4-carboxamide] are no less than 20 µM and 99 nM.
For the molecule `Cc1nsc(Nc2cnc(C(F)(F)F)cn2)c1C(=O)Nc1ccc(F)c(OC2CCN(CC(F)F)C2)c1` (stereo not shown) [Example 314, N-(3-{[1-(2,2-difluoroethyl)pyrrolidin-3-yl]oxy}-4-fluorophenyl)-3-methyl-5-{[5-(trifluoromethyl)pyrazin-2-yl]amino}-1,2-thiazole-4-carboxamide], the IC50 on CDK2/CycE was no less than 20 µM; in test [1] it was 53 nM.

For the origin of these results see patent publication US20170334899A1, “AMINO-SUBSTITUTED ISOTHIAZOLES” (Bayer Pharma Aktiengesellschaft, priority 2014, published 2017).
